The target of one assay is T1, MET F1200I (Homo sapiens, UniProt P08581, F1200I).
T1 construct: purchased Signalchem M52-12GG/Y767-2
Nature of the assay: Kinase inhibition experiment (HTRF KinEASE-TK kit), mutant MET F1200I. Format: biochemical. The note with it: 10 concentrations, 3-fold dilution. The protocol:
(§1) The activity of the compounds was determined by detecting the residual amount of ATP after reacting with wild-type or mutant MET protein kinase by using an HTRF KinEASE-TK kit. […]
(§2) The compounds were determined on the selected kinase, the solvent control was set and a total of 10 concentrations were detected, diluted 3-fold, 2 replicates per concentration.
(§3) 1 volume of 5× kinase reaction buffer and 4 volumes of water; 5 mM MgCl2; 1 mM DTT; 1 mM MnCl2; or 2500 nm SEB.
(§4) 1) 10 nl or 4 μlof the diluted compound was transferred to each well of the reaction plate (784075 or 264706, Greiner or Thermo) with a pipette, the reaction plate was sealed with a sealing plate, and centrifuged at 1000 for 1 minute.
(§5) 2) 2× MET was prepared from 1× enzyme reaction buffer, 5 μl or 2 μl kinase was added to each well of the reaction plate, the reaction plate was sealed with a sealing plate, centrifuged at 1000 g for 30 seconds and incubated at room temperature for 10 min.
(§6) 3) a mixed solution of 2× TK-substrate-biotin and ATP were prepared from 1× enzyme reaction buffer solution, 5 μl or 2 μl TK-substrate-biotin/ATP of the mixed solution was added into a reaction plate, the reaction plate was sealed with a sealing plate, centrifuged at 1000 g for 30 seconds and reacted for 50 minutes or 10 minutes at room temperature.
(§7) 4) a mixed solution of 4× or 2× Sa-XL 665 and TK-antibody-Cryptate were prepared from HTRF detection buffer, 5 or 10 μl of the mixed solution of Sa-XL 665 and TK-antibody-Cryptate was added into each well, centrifuged at 1000 g for 30 seconds, and reacted at room temperature for 1 h.
(§8) 5) the fluorescence signals at 615 nm (cryptate) and 665 nm (XL665) were read with Envision 2104 or TECAN.
(§9) The data was analyzed using GraphPad Prism 6.0 or 7 software, and the dose-response curve was fitted with nonlinear S-curve regression, and the IC50 value was calculated therefrom.
(§10) Enzyme Inhibition Percent (%)=100-(Signalmpd-SignalAve_PC)/(SignalAve_VC-SignalAve_PC)×100

The target in assay [1] is T2, wild type (WT) MET kinase (Homo sapiens, UniProt P08581).
T2 construct: purchased Carna 08-151
In words: Kinase inhibition experiment (HTRF KinEASE-TK kit), wild-type MET. It is filed as biochemical. The settings on record: 10 concentrations, 3-fold dilution. The protocol:
as §1, §2, §3, §4, §5, §6, §7, §8, §9, §10

In a further assay the test system is H1993 cell line. In words: Cell proliferation inhibition experiment (CellTiter-Glo), H1993. Format: cell-based. The settings on record: Homo sapiens, NCI-H1993, CTG, 72 h. The protocol:
CellTiter-Glo™ live cell detection kit adopts luciferase as the detection substance, and the luciferase needs the participation of ATP in the luminescence process. CellTiter-Glo™ reagent was added into the cell culture medium and the luminescence value was measured. The light signal is in direct proportion to the amount of ATP in the system, ATP is in direct correlation with number of living cells. Therefore, the proliferation of cells can be detected by detecting the content of ATP with CellTiter-Glo kit.
In the experiment, the proliferation inhibition effect of the prepared compounds on tumor cell lines Hs746T, EBC-1 and H1993 was measured by a celltiter-glo (CTG) method, and 50% inhibition concentration IC50 was calculated.
The compounds were determined on the selected cells, the solvent control was set and a total of 10 concentrations were detected, 2 replicates per concentration.
a) Cells in the logarithmic growth phase were harvested and counted by a […]. The cell viability was detected by a trypan blue exclusion method to ensure that the cell viability was over 90%.
b) The cell concentration was adjusted; 30 μL of cell suspension was added to a 384-well plate respectively.
c) Cells in a 384-well plate were incubated overnight at 37° C., 5% CO2 and 95% humidity.
a) 10 times of drug solution was prepared with the highest concentration of 10 mM, 10 concentrations and 3 times dilution, 10 μL of drug solution was added into each well of a 384-well plate inoculated with cells, and three multiple wells were arranged for each drug concentration. DMSO was the blank control.
b) The cells in the 384-well plate were incubated for a further 72 h at 37° C., 5% CO2 and 95% humidity before CTG analysis.
a) The CTG reagent was melted and the cell plate was equilibrated to room temperature for 30 min.
b) An equal volume of CTG solution was added to each well.
c) Cells were lysed by shaking on an orbital shaker for 5 minutes.
d) The cell plate was left at room temperature for 20 minutes to stabilize the luminescence signal.
e) The cold light value was read.
The data was analyzed by GraphPad Prism 8 software, and the dose-response curve was fitted with nonlinear S-curve regression, and the IC50 value was calculated therefrom.
Cell viability(%)=(Lumdrugs to be tested-Lumblank control)/(Lumcell control-Lumblank control)×100%.

For the next assay, the target named is T3, MET D1228N (Homo sapiens, UniProt P08581, D1228N).
T3 construct: purchased Signalchem M52-12IG
Nature of the assay: Kinase inhibition experiment (HTRF KinEASE-TK kit), mutant MET D1228N. It is filed as biochemical. The settings on record: 10 concentrations, 3-fold dilution. The protocol:
as §1, §2, §3, §4, §5, §6, §7, §8, §9, §10

T1 sequence (P08581 25-1390 F1200I): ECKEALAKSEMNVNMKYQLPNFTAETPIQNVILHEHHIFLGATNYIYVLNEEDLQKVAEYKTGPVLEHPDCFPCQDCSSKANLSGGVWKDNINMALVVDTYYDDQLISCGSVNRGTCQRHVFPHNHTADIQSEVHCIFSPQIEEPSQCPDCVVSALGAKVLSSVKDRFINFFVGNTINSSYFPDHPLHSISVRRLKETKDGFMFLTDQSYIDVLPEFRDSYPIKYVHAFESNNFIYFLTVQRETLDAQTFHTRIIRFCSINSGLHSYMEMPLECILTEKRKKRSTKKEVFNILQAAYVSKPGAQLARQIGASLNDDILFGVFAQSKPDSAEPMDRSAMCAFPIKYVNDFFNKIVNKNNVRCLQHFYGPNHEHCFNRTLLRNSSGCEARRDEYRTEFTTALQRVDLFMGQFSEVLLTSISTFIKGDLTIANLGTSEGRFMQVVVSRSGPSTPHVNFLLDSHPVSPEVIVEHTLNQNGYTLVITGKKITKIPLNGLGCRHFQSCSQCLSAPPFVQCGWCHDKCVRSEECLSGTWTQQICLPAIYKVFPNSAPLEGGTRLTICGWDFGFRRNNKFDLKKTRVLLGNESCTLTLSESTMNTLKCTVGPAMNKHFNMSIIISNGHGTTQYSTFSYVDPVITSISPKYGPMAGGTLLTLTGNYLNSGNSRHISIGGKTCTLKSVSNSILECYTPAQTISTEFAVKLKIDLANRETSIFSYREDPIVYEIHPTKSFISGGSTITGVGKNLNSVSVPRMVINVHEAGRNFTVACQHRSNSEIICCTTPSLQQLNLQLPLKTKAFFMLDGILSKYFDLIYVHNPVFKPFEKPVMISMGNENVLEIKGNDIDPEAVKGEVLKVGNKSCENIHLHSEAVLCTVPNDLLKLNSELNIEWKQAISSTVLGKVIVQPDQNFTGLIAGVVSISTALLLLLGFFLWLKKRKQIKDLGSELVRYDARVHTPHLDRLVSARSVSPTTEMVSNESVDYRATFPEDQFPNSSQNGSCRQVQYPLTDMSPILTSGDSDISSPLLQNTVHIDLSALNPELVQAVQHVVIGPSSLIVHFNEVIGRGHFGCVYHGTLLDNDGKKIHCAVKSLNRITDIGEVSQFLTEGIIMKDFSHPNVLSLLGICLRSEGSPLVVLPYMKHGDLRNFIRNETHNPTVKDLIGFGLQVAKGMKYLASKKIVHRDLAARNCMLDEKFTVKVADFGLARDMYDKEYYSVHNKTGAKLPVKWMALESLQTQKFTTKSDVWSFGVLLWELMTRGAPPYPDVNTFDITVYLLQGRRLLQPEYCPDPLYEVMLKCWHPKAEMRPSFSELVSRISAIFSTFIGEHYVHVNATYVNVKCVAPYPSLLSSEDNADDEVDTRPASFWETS
T3 sequence (P08581 25-1390 D1228N): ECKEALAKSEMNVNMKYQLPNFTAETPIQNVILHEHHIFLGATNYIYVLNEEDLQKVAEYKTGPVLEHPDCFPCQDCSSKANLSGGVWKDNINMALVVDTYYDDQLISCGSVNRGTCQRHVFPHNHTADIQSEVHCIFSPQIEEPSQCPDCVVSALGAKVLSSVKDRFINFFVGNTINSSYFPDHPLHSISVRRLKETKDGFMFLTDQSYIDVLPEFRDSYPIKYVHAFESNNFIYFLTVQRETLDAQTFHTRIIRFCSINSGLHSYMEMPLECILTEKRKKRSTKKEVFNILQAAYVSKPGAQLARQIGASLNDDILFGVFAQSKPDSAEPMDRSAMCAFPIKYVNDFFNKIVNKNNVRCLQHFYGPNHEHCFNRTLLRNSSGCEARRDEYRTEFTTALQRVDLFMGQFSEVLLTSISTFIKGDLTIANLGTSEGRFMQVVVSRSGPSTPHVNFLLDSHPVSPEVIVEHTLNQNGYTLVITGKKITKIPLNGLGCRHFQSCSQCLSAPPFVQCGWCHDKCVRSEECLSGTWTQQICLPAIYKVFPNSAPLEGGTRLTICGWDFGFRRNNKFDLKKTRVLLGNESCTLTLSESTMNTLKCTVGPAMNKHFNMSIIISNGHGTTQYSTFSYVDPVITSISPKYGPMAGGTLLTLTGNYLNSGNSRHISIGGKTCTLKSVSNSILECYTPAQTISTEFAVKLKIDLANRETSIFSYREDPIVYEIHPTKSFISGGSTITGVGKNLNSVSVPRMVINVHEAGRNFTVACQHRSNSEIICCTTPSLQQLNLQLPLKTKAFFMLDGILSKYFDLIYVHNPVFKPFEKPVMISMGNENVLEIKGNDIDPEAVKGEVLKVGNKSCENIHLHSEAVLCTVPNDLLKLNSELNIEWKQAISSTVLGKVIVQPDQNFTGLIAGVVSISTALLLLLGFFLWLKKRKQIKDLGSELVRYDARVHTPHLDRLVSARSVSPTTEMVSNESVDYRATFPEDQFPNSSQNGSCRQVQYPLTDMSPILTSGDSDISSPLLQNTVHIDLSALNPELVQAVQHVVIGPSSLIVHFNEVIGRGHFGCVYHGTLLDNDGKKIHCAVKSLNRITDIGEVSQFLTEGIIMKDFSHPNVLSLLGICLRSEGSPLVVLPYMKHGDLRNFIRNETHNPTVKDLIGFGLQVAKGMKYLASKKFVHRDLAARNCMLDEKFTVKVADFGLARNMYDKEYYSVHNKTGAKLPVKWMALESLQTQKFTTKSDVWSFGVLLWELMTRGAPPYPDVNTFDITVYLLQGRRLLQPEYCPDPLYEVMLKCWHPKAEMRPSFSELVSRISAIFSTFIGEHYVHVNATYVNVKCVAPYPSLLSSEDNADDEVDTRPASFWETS
T2 sequence (P08581 25-1390): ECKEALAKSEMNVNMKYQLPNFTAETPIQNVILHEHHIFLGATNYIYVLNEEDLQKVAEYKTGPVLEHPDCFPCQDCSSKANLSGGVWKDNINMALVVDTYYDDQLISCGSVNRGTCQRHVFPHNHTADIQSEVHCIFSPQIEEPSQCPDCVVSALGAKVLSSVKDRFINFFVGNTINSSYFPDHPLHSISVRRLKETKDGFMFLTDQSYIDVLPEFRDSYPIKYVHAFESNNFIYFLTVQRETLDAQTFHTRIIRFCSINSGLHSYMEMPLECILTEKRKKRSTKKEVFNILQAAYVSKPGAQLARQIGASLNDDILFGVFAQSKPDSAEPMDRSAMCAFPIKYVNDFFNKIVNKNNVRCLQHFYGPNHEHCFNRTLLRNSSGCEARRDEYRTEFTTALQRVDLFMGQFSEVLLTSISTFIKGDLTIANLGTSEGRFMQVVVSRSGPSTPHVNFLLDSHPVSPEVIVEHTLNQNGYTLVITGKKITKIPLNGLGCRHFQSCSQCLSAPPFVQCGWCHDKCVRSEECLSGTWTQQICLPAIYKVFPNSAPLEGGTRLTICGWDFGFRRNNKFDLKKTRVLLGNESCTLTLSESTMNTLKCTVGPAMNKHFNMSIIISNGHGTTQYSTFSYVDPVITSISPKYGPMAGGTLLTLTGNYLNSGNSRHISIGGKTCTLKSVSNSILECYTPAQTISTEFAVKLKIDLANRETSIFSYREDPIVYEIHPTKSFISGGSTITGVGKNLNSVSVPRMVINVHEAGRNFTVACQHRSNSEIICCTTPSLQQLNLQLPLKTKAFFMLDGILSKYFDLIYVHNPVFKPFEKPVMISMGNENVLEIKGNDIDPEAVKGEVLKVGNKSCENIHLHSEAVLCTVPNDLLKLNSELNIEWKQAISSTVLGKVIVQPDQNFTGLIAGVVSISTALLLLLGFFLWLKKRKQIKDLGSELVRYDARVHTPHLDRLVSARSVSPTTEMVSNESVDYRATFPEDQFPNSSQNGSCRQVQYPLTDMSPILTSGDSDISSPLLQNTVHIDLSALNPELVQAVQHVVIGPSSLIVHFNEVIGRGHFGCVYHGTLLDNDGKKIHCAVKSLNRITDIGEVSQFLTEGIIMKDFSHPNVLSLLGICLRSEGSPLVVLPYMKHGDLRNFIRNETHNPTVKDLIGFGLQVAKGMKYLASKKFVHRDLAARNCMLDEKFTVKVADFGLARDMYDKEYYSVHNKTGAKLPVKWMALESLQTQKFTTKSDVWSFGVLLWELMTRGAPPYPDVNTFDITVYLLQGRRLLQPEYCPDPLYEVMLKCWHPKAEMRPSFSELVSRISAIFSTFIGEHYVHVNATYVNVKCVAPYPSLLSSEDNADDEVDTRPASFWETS

Consider `O=C(Nc1ccc(Oc2ccnc3[nH]nc(N4CCC(F)(CO)CC4)c23)c(F)c1)c1cccc(-c2ccc(F)cc2)[n+]1[O-]` [Final product 30], for which the IC50 came to 5.5 nM against MET F1200I, 1.7 nM in assay [1], 50.2 nM in the assay on H1993 cell line and 11.2 nM against MET D1228N.

As for `O=C(Nc1ccc(Oc2ccnc3[nH]nc(N4CCC[C@@H](CO)C4)c23)c(F)c1)c1cccc(-c2ccc(F)cc2)[n+]1[O-]` [Final product 32], the IC50 against MET F1200I came to 10.1 nM; in assay [1], 4.4 nM; with H1993 cell line, 30.6 nM; against MET D1228N it was 16.7 nM.

As for `C[C@H](CO)Nc1n[nH]c2nccc(Oc3ccc(NC(=O)c4ccc(Cl)c(-c5ccc(F)cc5)[n+]4[O-])cc3Cl)c12` [Final product 121], the concentration for half-maximal inhibition (IC50) on MET F1200I worked out at 11.4 nM; in assay [1], 4.3 nM; with H1993 cell line, 42.3 nM; against MET D1228N it was 19 nM.

As to `CC(O)C1CN(c2n[nH]c3nccc(Oc4ccc(NC(=O)c5cccc(-c6ccc(F)cc6)[n+]5[O-])cc4Cl)c23)C1` (centres unmarked) [Final product 107], the IC50 turned out to be 12.3 nM at MET F1200I, 1.6 nM in assay [1], 76.9 nM with H1993 cell line and 26.8 nM against MET D1228N.

Regarding `C[C@H](CO)Nc1n[nH]c2nccc(Oc3ccc(NC(=O)c4ccc(Cl)c(-c5ccc(F)cc5)[n+]4[O-])c(F)c3)c12` [Final product 159], the IC50 against MET F1200I came to 2 nM; in assay [1], 3 nM; in the assay with H1993 cell line, 78.4 nM; at MET D1228N it was 14.8 nM.

For the molecule `Cc1ccc(C(=O)Nc2ccc(Oc3ccnc4[nH]nc(N[C@H](C)CO)c34)cc2F)[n+]([O-])c1-c1ccc(F)cc1` [Final product 160], the 50% inhibitory concentration (IC50) on MET F1200I stood at 12.9 nM; in assay [1], 5.7 nM; against MET D1228N it was 19.6 nM.

On to `C[C@H](CO)Nc1n[nH]c2nccc(Oc3ccc(NC(=O)c4ccc(OCC(F)F)c(-c5ccc(F)cc5)[n+]4[O-])cc3Cl)c12` [Final product 141], for which the figures for the half-inhibitory concentration (IC50) (at MET F1200I; in assay [1]; against MET D1228N) were 33 nM, 1.9 nM and 26.3 nM, respectively.

Turning to `CC(O)C(CO)CNc1n[nH]c2nccc(Oc3ccc(NC(=O)c4cccc(-c5ccc(F)cc5)[n+]4[O-])cc3Cl)c12` (centres unmarked) [Final product 102], the IC50 on MET F1200I was 2.1 nM; in assay [1] it was 1 nM; against MET D1228N, 6.3 nM.

Turning to `O=C(Nc1ccc(Oc2ccnc3[nH]nc(NCCO)c23)c(F)c1)c1cccc(-c2ccc(F)cc2)[n+]1[O-]` [Final product 1], the values for the IC50 (against MET F1200I; in assay [1]; against MET D1228N) were 5.8 nM, 2.3 nM and 35.4 nM, respectively.

As for `C[C@H](CO)Nc1n[nH]c2nccc(Oc3ccc(NC(=O)c4ccc(C(F)(F)F)c(-c5ccc(F)cc5)[n+]4[O-])cc3F)c12` [Final product 82], the IC50 against MET F1200I came out at 29.6 nM; in assay [1], 17.4 nM; against MET D1228N, 48.1 nM.

In the case of `C[C@H](CO)Nc1n[nH]c2nccc(Oc3ccc(NC(=O)c4cccc(-c5ccc(Cl)cc5)[n+]4[O-])cc3Cl)c12` [Final product 116], the half-maximal inhibitory concentration (IC50) against MET F1200I worked out at 10.7 nM; in assay [1], 4.6 nM; against MET D1228N it was 28.7 nM.

Consider `C[C@H](CO)Nc1n[nH]c2nccc(Oc3ccc(NC(=O)c4ccc(F)c(-c5ccc(F)cc5)[n+]4[O-])c(F)c3)c12` [Final product 155], for which the 50% inhibitory concentration (IC50) worked out at 13.2 nM on MET F1200I, 5.6 nM in assay [1] and 27.4 nM against MET D1228N.

Take `C[C@@H](Nc1n[nH]c2nccc(Oc3ccc(NC(=O)c4cccc(-c5ccc(F)cc5)[n+]4[O-])cc3F)c12)C(C)(C)O` [Final product 16]: the half-inhibitory concentration (IC50) on MET F1200I worked out at 25.8 nM; in assay [1] it was 7.5 nM; at MET D1228N it was 28.2 nM.

As for `C[C@H](CO)Cn1ccc2ncnc(Oc3ccc(NC(=O)c4cccc(-c5ccc(F)cc5)[n+]4[O-])cc3F)c21` [Final product 169, (S)-2-((3-fluoro-4-((5-(3-hydroxy-2-methylpropyl)-5H-pyrrolo[3,2-d]pyrimidin-4-yl)oxy)phenyl)carbamoyl)-6-(4-fluorophenyl)pyridine 1-oxide], the results for the IC50 (on MET F1200I; in assay [1]; on MET D1228N) were 2.1 nM, 1.8 nM and 6.9 nM, respectively.

With `O=C(Nc1ccc(Oc2ccnc3[nH]nc(N[C@H]4COC[C@@H]4O)c23)c(Cl)c1)c1cccc(-c2ccc(F)cc2)[n+]1[O-]` [Final product 115], the half-inhibitory concentration (IC50) was 6 nM against MET F1200I, 0.8 nM in assay [1] and 10.9 nM on MET D1228N.

On to `O=C(Nc1ccc(Oc2ccnc3[nH]nc(NC4CC(CO)C4)c23)c(Cl)c1)c1cccc(-c2ccc(F)cc2)[n+]1[O-]` (centres unmarked) [Final product 113], for which the results for the IC50 (on MET F1200I; in assay [1]; against MET D1228N) were 9.2 nM, 3.3 nM and 22.5 nM, respectively.

As for `O=C(Nc1ccc(Oc2ccnc3[nH]nc(N[C@H]4COC[C@@H]4O)c23)c(Cl)c1)c1ccc(Cl)c(-c2ccc(F)cc2)[n+]1[O-]` [Final product 123], the IC50 turned out to be 10 nM against MET F1200I, 1 nM in assay [1] and 30.1 nM at MET D1228N.

Turning to `O=C(Nc1ccc(Oc2ccnc3[nH]nc(N4CCC[C@H](CO)C4)c23)c(F)c1)c1cccc(-c2ccc(F)cc2)[n+]1[O-]` [Final product 33], the IC50 against MET F1200I was determined as 21.1 nM; in assay [1], 9.7 nM; against MET D1228N it was 30.5 nM.

Take `C[C@H](CO)Nc1n[nH]c2nccc(Oc3ccc(NC(=O)c4cccc(-c5ccc(Cl)cc5)[n+]4[O-])cc3F)c12` [Final product 42]: the 50% inhibitory concentration (IC50) against MET F1200I came to 14.2 nM; in assay [1], 1.4 nM; on MET D1228N, 36.2 nM.

Regarding `C[C@H](CO)Nc1n[nH]c2nccc(Oc3ccc(NC(=O)c4ccnc(-c5ccc(F)cc5)[n+]4[O-])cc3F)c12` [Final product 96], the 50% inhibitory concentration (IC50) on MET F1200I stood at 4.5 nM; in assay [1], 2.2 nM; at MET D1228N, 14.1 nM.

In the case of `C[C@H](CO)Nc1n[nH]c2nccc(Oc3ccc(NC(=O)c4ccc(N(C)C)c(-c5ccc(F)cc5)[n+]4[O-])cc3F)c12` [Final product 89], the IC50 against MET F1200I is 17.6 nM; in assay [1], 5.3 nM; against MET D1228N it was 16.4 nM.

On to `CC[C@@H](CO)Nc1n[nH]c2nccc(Oc3ccc(NC(=O)c4ccc(Cl)c(-c5ccc(F)cc5)[n+]4[O-])cc3F)c12` [Final product 59], for which the IC50 was 7.9 nM on MET F1200I, 12.7 nM in assay [1] and 20.3 nM against MET D1228N.

As for `C[C@H](CO)Nc1n[nH]c2nccc(Oc3cc(F)c(NC(=O)c4ccc(Cl)c(-c5ccc(F)cc5)[n+]4[O-])cc3F)c12` [Final product 157], the IC50 is 17.5 nM against MET F1200I, 1.7 nM in assay [1] and 46.2 nM against MET D1228N.

On to `Cc1ccc(C(=O)Nc2ccc(Oc3ccnc4[nH]nc(N[C@H]5COC[C@@H]5O)c34)c(Cl)c2)[n+]([O-])c1-c1ccc(F)cc1` [Final product 129], for which the 50% inhibitory concentration (IC50) on MET F1200I was 8.8 nM; in assay [1], 0.6 nM; on MET D1228N, 21.1 nM.

Values taken from patent US20250092033A1, “HETEROAROMATIC NITROGEN-OXIDE COMPOUND, PREPARATION METHOD THEREFOR, AND USE THEREOF” (BEIJING AVISTONE BIOTECHNOLOGY CO., LTD., priority 2021, published 2025).
